# Source: ChEMBL document CHEMBL5357074, “Cannabidiol-Based Prodrugs: Synthesis and Bioevaluation” (ACS Med Chem Lett, 2024)
# Calls of active or inactive are those of the source. The rule behind the calls is not given here.
# Tests used:
# [1] = Prodrug conversion in human plasma assessed as drug release measured after 24 hrs by HPLC analysis; format: ADME, cell-free
# [2] = in vivo; conditions: Swiss, mouse, po, 75 mg/kg
# Description: Tmax in fasted Swiss mouse at 75 mg/kg, po measured for 24 hrs by LCMS/MS analysis
# [3] = in vivo; conditions: Wistar, rat, po, 75 mg/kg
# Description: Tmax in fasted Wistar rat at 75 mg/kg, po measured for 24 hrs by LCMS/MS analysis
# [4] = Thermodynamic equilibrium solubility SIF at 1 to 1200 ug incubated for 4 hrs by absorbance based assay; format: physicochemical; conditions: dose 1-1200 µg, read-out: Therm_solubility
# [5] = Cmax in fasted Swiss mouse at 75 mg/kg, po measured for 24 hrs by LCMS/MS analysis; format: ADME, organism-based; set-up: dose 75 mg/kg, time 24 hrs, route po; conditions: in vivo
# [6] = AUC (0 to infinity) in fasted Wistar rat at 75 mg/kg, po measured for 24 hrs by LCMS/MS analysis; format: ADME, organism-based; set-up: time 24 hrs, dose 75 mg/kg, route po; conditions: in vivo
# [7] = AUC (0 to t) in fasted Swiss mouse at 75 mg/kg, po measured for 24 hrs by LCMS/MS analysis; format: ADME, organism-based; set-up: time 24 hrs, dose 75 mg/kg, route po; conditions: in vivo
# [8] = Cmax in fasted Wistar rat at 75 mg/kg, po measured for 24 hrs by LCMS/MS analysis; format: ADME, organism-based; set-up: time 24 hrs, dose 75 mg/kg, route po; conditions: in vivo
# [9] = AUC (0 to infinity) in fasted Swiss mouse at 75 mg/kg, po measured for 24 hrs by LCMS/MS analysis; format: ADME, organism-based; set-up: dose 75 mg/kg, time 24 hrs, route po; conditions: in vivo
# [10] = Chemical stability in SIF at 2 mg/ml incubated for 2 hrs by HPLC analysis; format: physicochemical; conditions: read-out: Stability
# [11] = Volume of distribution at steady state in fasted Wistar rat at 75 mg/kg, po measured for 24 hrs by LCMS/MS analysis; format: ADME, organism-based; conditions: in vivo
# [12] = Thermodynamic equilibrium solubility SGF at 1 to 1200 ug incubated for 4 hrs by absorbance based assay; format: physicochemical; conditions: dose 1-1200 µg, read-out: Therm_solubility
# [13] = Chemical stability in SGF at 2 mg/ml incubated for 2 hrs by HPLC analysis; format: physicochemical; conditions: read-out: Stability
# [14] = Chemical stability in water at 2 mg/ml incubated for 2 hrs by HPLC analysis; format: physicochemical; conditions: read-out: Stability
# [15] = Volume of distribution in fasted Swiss mouse at 75 mg/kg, po measured for 24 hrs by LCMS/MS analysis; format: ADME, organism-based; conditions: in vivo
# [16] = Oral bioavailability in Swiss mouse at 5 mg/kg measured for 24 hrs by LCMS/MS analysis; format: ADME, organism-based; conditions: in vivo
# [17] = AUC (0 to t) in fasted Wistar rat at 75 mg/kg, po measured for 24 hrs by LCMS/MS analysis; format: ADME, organism-based; set-up: dose 75 mg/kg, time 24 hrs, route po; conditions: in vivo
# [18] = Clearance in fasted Swiss mouse at 75 mg/kg, po measured for 24 hrs by LCMS/MS analysis; format: ADME, organism-based; conditions: in vivo
# [19] = Clearance in fasted Wistar rat at 75 mg/kg, po measured for 24 hrs by LCMS/MS analysis; format: ADME, organism-based; conditions: in vivo
# [20] = Thermodynamic equilibrium solubility in water at 1 to 1200 ug incubated for 4 hrs by absorbance based assay; format: physicochemical; conditions: dose 1-1200 µg, read-out: Therm_solubility
# [21] = Stability in Balb/C mouse plasma assessed as compound degradation at 10 uM incubated for 2 hrs by LC-MS/MS analysis; format: ADME, cell-free; conditions: read-out: Drug degradation
# [22] = Volume of distribution at steady state in fasted Wistar rat at 75 mg/kg, po equivalent to Cannabidiol measured for 24 hrs by LCMS/MS analysis; format: ADME, organism-based; conditions: in vivo
# [23] = Volume of distribution in fasted Swiss mouse at 75 mg/kg, po equivalent to Cannabidiol measured for 24 hrs by LCMS/MS analysis; format: ADME, organism-based; conditions: in vivo
# [24] = Prodrug conversion in human plasma assessed as formation of O-(2-morpholinoacetyl)cannabidiol metabolite measured for 1 hr by HPLC analysis; format: ADME, cell-free
# [25] = system: Mus musculus; experiment: Antiepileptic activity in MES Swiss Albino mouse model assessed as decrease in convulsion duration at 75 mg/kg, po equivalent to Cannabidiol pretreated for 30 mins followed by induction of epileptic seizures measured for 1 to 8 hrs; format: functional, organism-based; conditions: time 1.5-8.5 hrs
# [26] = Prodrug conversion in human plasma assessed as formation of O-{2-(4-cyclopropylpiperazin-1-yl)acetyl}cannabidiol metabolite measured for 1 to 8 hrs by HPLC analysis; format: ADME, cell-free; conditions: time 1-8 hrs
compound,measurement,setting,value
C=C(C)[C@@H]1CCC(C)=C[C@H]1c1c(O)cc(CCCCC)cc1OC(=O)CN1CCCC1,Drug metabolism,[1],74%
C=C(C)[C@@H]1CCC(C)=C[C@H]1c1c(O)cc(CCCCC)cc1OC(=O)CN1CCN(c2ccccc2)CC1,Drug metabolism,[1],9.2%
C=C(C)[C@@H]1CCC(C)=C[C@H]1c1c(O)cc(CCCCC)cc1O [CANNABIDIOL],Tmax at 24 h,[2],2 h
same,Tmax at 24 h,[3],8 h
same,solubility thermodynamic at 4 h,[4],< 5 µg/mL
same,Cmax,[5],669 ng/mL
same,AUC(0-inf),[6],10200 ng·h/mL
same,AUC(0-t) at 24 h,[7],4660 ng·h/mL
same,Cmax,[8],728 ng/mL
same,AUC(0-inf),[9],4870 ng·h/mL
same,"remaining at 2 h, 2 mg/ml",[10],≥ 74%
same,Vdss,[11],77 L/kg
same,solubility thermodynamic at 4 h,[12],< 5 µg/mL
same,"remaining at 2 h, 2 mg/ml",[13],≥ 74%
same,"remaining at 2 h, 2 mg/ml",[14],≥ 74%
same,Vd,[15],137 L/kg
same,bioavailability,[16],24%
same,AUC(0-t) at 24 h,[17],9460 ng·h/mL
same,CL/F,[18],250 mL/min/kg
same,CL/F,[19],123 mL/min/kg
same,solubility thermodynamic at 4 h,[20],< 5 µg/mL
CCOC(=O)[C@H](CCc1ccccc1)N[C@@H](C)C(=O)N1CCC[C@H]1C(=O)O [ENALAPRIL],"metabolised at 2 h, 10 µM",[21],> 80%
C=C(C)[C@@H]1CCC(C)=C[C@H]1c1c(O)cc(CCCCC)cc1OC(=O)CN1CCC(c2ccccc2)CC1,Drug metabolism,[1],4.6%
O=C(O)CN1CCOCC1,"remaining at 2 h, 2 mg/ml",[10],≥ 74%
same,"remaining at 2 h, 2 mg/ml",[14],≥ 74%
C=C(C)[C@@H]1CCC(C)=C[C@H]1c1c(O)cc(CCCCC)cc1OC(=O)CN1CCN(C2CC2)CC1,Drug metabolism,[1],56%
C=C(C)[C@@H]1CCC(C)=C[C@H]1c1c(O)cc(CCCCC)cc1OC(=O)CN1CCC(O)CC1,Drug metabolism,[1],73%
C=C(C)[C@@H]1CCC(C)=C[C@H]1c1c(O)cc(CCCCC)cc1OC(=O)CN1CCOCC1,Vdss,[22],32 L/kg
same,solubility thermodynamic at 4 h,[4],80 µg/mL
same,solubility thermodynamic at 4 h,[12],400 µg/mL
same,Vd,[23],108 L/kg
same,Drug metabolism,[1],84%
same,solubility thermodynamic at 4 h,[20],40 µg/mL
O=C(/C=C/C=C/c1ccc2c(c1)OCO2)N1CCCCC1 [PIPERINE],solubility thermodynamic at 4 h,[4],60 µg/mL
same,solubility thermodynamic at 4 h,[12],40 µg/mL
same,solubility thermodynamic at 4 h,[20],40 µg/mL
C=C(C)[C@@H]1CCC(C)=C[C@H]1c1c(OC(=O)CN2CCOCC2)cc(CCCCC)cc1OC(=O)CN1CCOCC1,Vdss,[22],93 L/kg
same,solubility thermodynamic at 4 h,[4],120 µg/mL
same,solubility thermodynamic at 4 h,[12],4000 µg/mL
same,Drug metabolism,[24],Metabolite_Detected
same,Vd,[23],224 L/kg
same,Activity,[25],Active
same,Drug metabolism,[1],52%
same,solubility thermodynamic at 4 h,[20],120 µg/mL
C=C(C)[C@@H]1CCC(C)=C[C@H]1c1c(O)cc(CCCCC)cc1OC(=O)CN1CCN(C)CC1,Drug metabolism,[1],59%
C=C(C)[C@@H]1CCC(C)=C[C@H]1c1c(OC(=O)CN2CCN(C3CC3)CC2)cc(CCCCC)cc1OC(=O)CN1CCN(C2CC2)CC1,Drug metabolism,[26],Metabolite_Detected
same,Drug metabolism,[1],27%
C=C(C)[C@@H]1CCC(C)=C[C@H]1c1c(O)cc(CCCCC)cc1OC(=O)CN1CCN(C(C)C)CC1,Drug metabolism,[1],78%
